Assay results as given in US20110245249A1, “Heterocyclically Substituted Anilinopyrimidines” (Bayer CropScience AG, priority 2008, published 2011).

Assay: logP by HPLC on reversed-phase columns (EEC Directive 79/831 Annex V.A8)
Assay type: physicochemical
Details: for log p [c]: pH 7.8; for log p [a]: pH 2.3
Experimental: The logP values were measured in accordance with EEC Directive 79/831 Annex V.A8 by HPLC (High Performance Liquid Chromatography) on reversed-phase columns (C 18) using the methods below:
[a] The determination was carried out in the acidic range at pH 2.3 using the mobile phases 0.1% aqueous phosphoric acid and acetronitrile linear gradient from 10% acetonitrile to 95% acetronitrile. [b] The LC-MS determination in the acid range was carried out at pH 2.7 using the mobile phases 0.1% aqueous formic acid and acetonitrile (contains 0.1% formic acid) linear gradient from 10% acetonitrile to 95% acetonitrile. [c] The LC-MS determination in the neutral range was carried out at pH 7.8 using the mobile phases 0.001 molar aqueous ammonium bicarbonate solution and acetonitrile linear gradient from 10% acetonitrile to 95% acetonitrile.

Row | SMILES | log p [b] (pH 2.7) | log p [c] | other results
1 | Clc1cnc(Nc2cccc(C3OCCO3)c2)nc1NC1CCC1 [Example 31] | 1.91 | 3.23 | –
2 | Clc1cnc(Nc2cccc(C3OC4COCC4O3)c2)nc1NC1CC1 (centres unmarked) [Example 32] | 1.55[b] | – | –
3 | ClCC1COC(c2cccc(Nc3ncc(Cl)c(NC4CC4)n3)c2)O1 (centres unmarked) [Example 33] | 2.19 | – | log p [a]: 1.85
4 | C=CCOCC1COC(c2cccc(Nc3ncc(Cl)c(NC4CC4)n3)c2)O1 (centres unmarked) [Example 34] | 2.25 | 3.39 | –
5 | Clc1cnc(Nc2cccc(C3SCCCS3)c2)nc1NC1CC1 [Example 35, 5-Chloro-N^4-cyclopropyl-N^2-[3-(1,3-dithian-2-yl)phenyl]pyrimidine-2,4-diamine] | – | – | chromatographic logP (pH 2.7, log p [b]): 2.44; chromatographic logP (pH 2.7, logP (pH 2.7)): 2.44; chromatographic logP (pH 7.8, log p [c]): 3.65
6 | COc1ccc(OCC2COC(c3cccc(Nc4ncc(Cl)c(NC5CC5)n4)c3)O2)cc1 (centres unmarked) [Example 36] | 2.64 | 3.78 | –
7 | O=[N+]([O-])c1ccccc1C1COC(c2cccc(Nc3ncc(Cl)c(NC4CC4)n3)c2)O1 (centres unmarked) [Example 37] | 2.89 | 4 | –
8 | CCCCCCC1COC(c2cccc(Nc3ncc(Cl)c(NC4CC4)n3)c2)O1 (centres unmarked) [Example 38] | 4.14 | 5.29 | –
9 | CCCCC1COC(c2cccc(Nc3ncc(Cl)c(NC4CC4)n3)c2)O1 (centres unmarked) [Example 39] | 3.16 | 4.4 | –
10 | CCN(CC)CC1COC(c2cccc(Nc3ncc(Cl)c(NC4CC4)n3)c2)O1 (centres unmarked) [Example 40, 5-Chloro-N^4-cyclopropyl-N^2-(3-{4-[(diethylamino)methyl]-1,3-dioxolan-2-yl}phenyl)-pyrimidine-2,4-diamine] | – | – | chromatographic logP (pH 2.7, log p [b]): 1.07; chromatographic logP (pH 2.7, logP (pH 2.7)): 1.05; chromatographic logP (pH 7.8, log p [c]): 3.9
11 | Clc1cnc(Nc2cccc(C3OCC(CN4CCOCC4)O3)c2)nc1NC1CC1 (centres unmarked) [Example 41] | – | 2.54[c] | –
12 | OCC1COC(c2cccc(Nc3ncc(Cl)c(NC4CC4)n3)c2)O1 (centres unmarked) [Example 42] | 1.16 | 1.96 | –
13 | Clc1cnc(Nc2cccc(C3OCC(CN4CCCC4)O3)c2)nc1NC1CC1 (centres unmarked) [Example 43] | 0.99[b] | – | –
14 | Clc1cnc(Nc2cccc(C3OC4CCCCC4O3)c2)nc1NC1CC1 (centres unmarked) [Example 44] | 2.65 | 3.99 | –
15 | FC(F)(F)CNc1nc(Nc2cccc(C3OCCO3)c2)ncc1Cl [Example 45] | 2.35 | 2.73 | –
16 | Clc1cnc(Nc2cccc(C3OCCS3)c2)nc1NC1CC1 (centres unmarked) [Example 46, 5-Chloro-N^4-cyclopropyl-N^2-[3-(1,3-oxathiolan-2-yl)phenyl]pyrimidine-2,4-diamine] | – | – | chromatographic logP (pH 2.7, log p [b]): 2.05; chromatographic logP (pH 2.7, logP (pH 2.7)): 2.05; chromatographic logP (pH 7.8, log p [c]): 3.26
17 | Clc1cnc(Nc2cccc(C3SCCS3)c2)nc1NC1CC1 [Example 47] | 2.42 | 3.68 | –
18 | CC1(c2cccc(Nc3ncc(C(F)(F)F)c(NC4CC4)n3)c2)OCCCO1 [Example 48] | 3.29 | 3.64 | –
19 | Ic1cnc(Nc2cccc(C3OCCO3)c2)nc1NC1CC1 [Example 49] | 1.75 | 3.02 | –
20 | Clc1ccc(Nc2ncc(Cl)c(NC3CC3)n2)cc1C1OCCO1 [Example 50] | 2.31 | 3.28 | –
21 | Fc1cnc(Nc2cccc(C3OCCCO3)c2)nc1NC1CC1 [Example 51] | 1.28[b] | 2.4 | log p [a]: 1.23

Row | SMILES | log p [b] (pH 2.7) | log p [c] | other results
22 | FC(F)CNc1nc(Nc2cccc(C3OCCCO3)c2)ncc1Cl [Example 52] | 1.97[b] | 2.68 | log p [a]: 1.6
23 | FC(F)(F)CNc1nc(Nc2cccc(C3OCCCO3)c2)ncc1Cl [Example 53] | 2.48[b] | 2.86 | log p [a]: 2.08
24 | C#CCNc1nc(Nc2cccc(C3OCCCO3)c2)ncc1Cl [Example 54] | 1.67[b] | 2.48 | log p [a]: 1.38
25 | Cc1cnc(Nc2cccc(C3OCCCO3)c2)nc1NC1CC1 [Example 55] | 1.28[b] | 2.37 | log p [a]: 1.32
26 | COCC(C)Nc1nc(Nc2cccc(C3OCCCO3)c2)ncc1Cl (centres unmarked) [Example 56] | 1.69[b] | 2.92 | log p [a]: 1.46
27 | Ic1cnc(Nc2cccc(C3OCCCO3)c2)nc1NC1CC1 [Example 57] | 2.23[b] | 3.18 | log p [a]: 1.6
28 | Cc1cnc(Nc2cccc(C3OCCO3)c2)nc1NC1CC1 [Example 58] | 1.21[b] | 2.25 | log p [a]: 1.21
29 | Fc1cnc(Nc2cccc(C3OCCO3)c2)nc1NC1CC1 [Example 59] | 1.60[b] | 2.28 | log p [a]: 1.14
30 | FC(F)CNc1nc(Nc2cccc(C3OCCO3)c2)ncc1Cl [Example 60] | 1.88[b] | 2.55 | log p [a]: 1.49
31 | COCC(C)Nc1nc(Nc2cccc(C3OCCO3)c2)ncc1Cl (centres unmarked) [Example 61] | 1.62[b] | – | –
32 | Clc1ccc(Nc2ncc(Cl)c(NC3CC3)n2)cc1C1OCCCO1 [Example 62] | 2.44 | 3.47 | –
33 | COC(OC)c1cccc(Nc2ncc(Cl)c(NC3CC3)n2)c1 [Example 63] | 1.87 | 3.07 | –
34 | CCOC(OCC)c1cccc(Nc2ncc(Cl)c(NC3CC3)n2)c1 [Example 64] | 2.58 | 3.86 | –
35 | CC(C)OC(OC(C)C)c1cccc(Nc2ncc(Cl)c(NC3CC3)n2)c1 [Example 65] | – | 4.44[c]; | –
36 | CCCCOC(OCCCC)c1cccc(Nc2ncc(Cl)c(NC3CC3)n2)c1 [Example 66] | 4.64 | 5.83 | logP (pH 2.7) (pH 2.7): 4.64
37 | CC1(c2cccc(Nc3ncc(C(F)(F)F)c(NCC4CC4)n3)c2)OCCCO1 [Example 68] | 3.42[b] | – | –
38 | CC1(c2cccc(Nc3ncc(C(F)(F)F)c(NC4CCC4)n3)c2)OCCCO1 [Example 69] | 3.81 | 4.24 | –
39 | CC1(C)COC(C)(c2cccc(Nc3ncc(Cl)c(NC4CC4)n3)c2)OC1 [Example 71] | 2.99 | 4.35 | –
40 | CC1COC(C)(c2cccc(Nc3ncc(C(F)(F)F)c(NC4CC4)n3)c2)O1 (centres unmarked) [Example 72] | 3.52 | 3.94 | –
41 | CC1(C)COC(C)(c2cccc(Nc3ncc(C(F)(F)F)c(NC4CC4)n3)c2)OC1 [Example 73] | 4.32 | 4.7 | –
42 | CCC1(c2cccc(Nc3ncc(Cl)c(NC4CC4)n3)c2)OCC(C)O1 (centres unmarked) [Example 74] | 2.67 | 4.1 | –

Row | SMILES | log p [b] (pH 2.7) | log p [c] | other results
43 | CC1CC1Nc1nc(Nc2cccc(C3OCCO3)c2)ncc1Cl (centres unmarked) [Example 75] | – | 3.21[c] | –
44 | CC1CC1Nc1nc(Nc2cccc(C3(C)OCCO3)c2)ncc1Cl (centres unmarked) [Example 76] | 2.32 | 3.67 | –
45 | Brc1cnc(Nc2ccc(C3OCCCO3)cc2)nc1NC1CCC1 [Example 77] | 2.2 | 3.61 | –
46 | FC(F)(F)c1cnc(Nc2ccc(C3OCCCO3)cc2)nc1NC1CC1 [Example 78] | 2.72 | 3.21 | –
47 | Brc1cnc(Nc2cccc(C3OCC(C4CC4)CO3)c2)nc1NC1CC1 (centres unmarked) [Example 79] | 2.77 | 4.03 | –
48 | Clc1cnc(Nc2cccc(C3OCC(C4CC4)CO3)c2)nc1NC1CCC1 (centres unmarked) [Example 80] | 2.93 | 4.43 | –
49 | C=C1COC(c2cccc(Nc3ncc(Br)c(NC4CC4)n3)c2)OC1 [Example 81] | 2.1 | 3.27 | –
50 | C=C1COC(c2cccc(Nc3ncc(Br)c(NC4CCC4)n3)c2)OC1 [Example 82] | 2.43 | 3.85 | –
51 | CC1COC(c2cccc(Nc3ncc(C(F)(F)F)c(NC4CC4)n3)c2)O1 (centres unmarked) [Example 83] | 2.94[b] | 3.45 | log p [a]: 2.44
52 | CC1COC(c2cccc(Nc3ncc(Br)c(NC4CC4)n3)c2)O1 (centres unmarked) [Example 84] | 2.03 | 3.25 | –
53 | CC1COC(c2cccc(Nc3ncc(Br)c(NC4CCC4)n3)c2)O1 (centres unmarked) [Example 85] | 2.39 | 3.84 | –
54 | CC1COC(c2cccc(Nc3ncc(Cl)c(NC4CCC4)n3)c2)O1 (centres unmarked) [Example 86] | 2.2 | 3.68 | –
55 | CC1COC(c2cccc(Nc3ncc(C(F)(F)F)c(NC4CCC4)n3)c2)O1 (centres unmarked) [Example 87] | 3.51 | 4.04 | –
56 | CCC1COC(c2cccc(Nc3ncc(C(F)(F)F)c(NC4CC4)n3)c2)O1 (centres unmarked) [Example 88] | 3.48 | 3.9 | –
57 | CCC1COC(c2cccc(Nc3ncc(Br)c(NC4CCC4)n3)c2)O1 (centres unmarked) [Example 89] | 2.88 | 4.35 | –
58 | CCC1COC(c2cccc(Nc3ncc(Cl)c(NC4CCC4)n3)c2)O1 (centres unmarked) [Example 90] | 2.65 | 4.18 | –
59 | C=C1COC(c2cccc(Nc3ncc(Cl)c(NC4CCC4)n3)c2)OC1 [Example 91] | – | 3.73[c] | –
60 | C=C1COC(c2cccc(Nc3ncc(Cl)c(NC4CC4)n3)c2)OC1 [Example 92] | 2.01 | 3.18 | –
61 | Clc1cnc(Nc2cccc(C3OCC(C4CC4)CO3)c2)nc1NC1CC1 (centres unmarked) [Example 93] | 2.6 | 3.91 | –
62 | Clc1cnc(Nc2cccc(C3OCCC(c4ccccc4)O3)c2)nc1NC1CC1 (centres unmarked) [Example 94] | 2.83 | 4.11 | –
